From article PMC9863297, “Intermolecular Interactions of Edaravone in Aqueous Solutions of Ethaline and Glyceline Inferred from Experiments and Quantum Chemistry Computations” (Molecules, 2023)
Read-outs that look alike come from different tables or passages of the source.

Experiment: Edaravone solubility, slurry/shake-flask method with spectrophotometric determination at 243 nm
Type: physicochemical
Details: for solubility at 24 h: thermodynamic from solid, read-out: cE solubility concentration; for mole fraction solubility advantage of 1:2 composition over unimolar composition: DES involving ethylene glycol; for volume of saturated solution containing the recommended 60 mg: solubility at 298.15 K
Method: The first step in obtaining a calibration curve was the preparation of a stock solution of edaravone with a concentration of 2.3 mg/mL. This initial solution was successfully diluted in 10 mL volumetric flasks with methanol and the obtained solutions with decreasing concentrations were measured spectrophotometrically. […] Three separate curves were obtained, and the final curve resulted from averaging. […] The limits of detection (LOD) and quantification (LOQ) were calculated as 5.899∙10^−4 mg/mL and 1.770∙10^−3 mg/mL, respectively.
All of the studied deep eutectic solvents included choline chloride, while the second constituent was either glycerol or ethylene glycol. In order to prepare a DES formulation, choline chloride was mixed with the second compound in different molar ratios in sealed test tubes and placed in a water bath at 363.15 K until the formation of a uniform solution. The obtained DES were either used in their neat form or water was added to them in different proportions in order to form binary systems.
During the next stage, edaravone was added in excess amounts to the test tubes containing both neat DES and binary mixtures, which enabled us to obtain its saturated solutions. Samples prepared in such a manner were placed in an Orbital Shaker Incubator ES-20/60 from Biosan (Riga, Latvia) and incubated for 24 h at different temperatures, namely 298.15 K, 303.15 K, 308.15 K and 313.15 K. The temperature adjustment accuracy was 0.1 K and its variability in a 24 h cycle was ±0.5 K. Apart from heating, all of the samples were mixed at 60 rev/min. The increased viscosity and density of DES systems required the samples to be centrifuged at 1000 rev/min for 5 min with the use of EBA 20 centrifuge from Hettich (Tuttlingen, Germany) enabling the undissolved precipitate to remain on the bottom of the test tubes. Next, the samples were filtered using a syringe equipped with a PTFE syringe filer with 0.22 µm pore size. In order to avoid precipitation, the test tubes, syringes and filters were initially heated at a temperature equal to the one of the handled samples. Finally, small amounts of the obtained filtrate were transferred to test tubes filled with methanol and the diluted samples were measured spectrophotometrically. Additionally, for the determination of the mole fractions of edaravone, the density of the samples was measured by weighing a fixed volume of the solution in 10 mL volumetric flasks.
For determining the solubility of edaravone in the studied systems, the samples prepared, as described above, were measured spectrophotometrically using an A360 spectrophotometer from AOE Instruments (Shanghai, China). The spectra were recorded in the 190 nm to 500 nm wavelength range and 1 nm resolution. Methanol was used for the initial calibration of the spectrophotometer and for the dilution of the measured samples, which was conducted in order for the absorbance values to remain below 2.5. The absorbance values at 243 nm were taken into account and based on the calibration curve prepared earlier, the concentration of edaravone in the samples was determined, followed by its mole fractions. The values were averaged from three separate measurements.

CC1=NN(c2ccccc2)C(=O)C1 [edaravone, 5-methyl-2-phenyl-4H-pyrazol-3-one]
solubility at 24 h (40 °C, aqueous with cosolvent or surfactant or cyclodextrin, water + GLE (ChCl:GL 1:2), x*GLE = 0.6, 313.15 K): 692 mg/mL | solubility at 24 h (40 °C, aqueous with cosolvent or surfactant or cyclodextrin, water + GLE (ChCl:GL 1:2), x*GLE = 0.8, 313.15 K): 602 mg/mL | solubility at 24 h (40 °C, organic solvent or mixture, neat DES choline chloride + glycerol (GLE) 1:1 molar ratio, 313.15 K): 398 mg/mL | solubility at 24 h (40 °C, organic solvent or mixture, neat DES choline chloride + glycerol (GLE) 1:2 molar ratio (x*GLE = 1.0), 313.15 K): 492 mg/mL | solubility at 24 h (40 °C, organic solvent or mixture, neat DES choline chloride + glycerol (GLE) 1:4 molar ratio, 313.15 K): 470 mg/mL | mole fraction solubility advantage of 1:2 composition over unimolar composition (298.15 K): 53% | mole fraction solubility advantage of 1:2 composition over unimolar composition (313.15 K): 21% | solubility at 24 h (deep eutectic solvent + water binary mixture, 25 °C, aqueous with cosolvent or surfactant or cyclodextrin, water + ETA (ChCl:EG 1:2), x*ETA = 0.8, 298.15 K): 363 mg/mL | solubility at 24 h (deep eutectic solvent + water binary mixture, 30 °C, aqueous with cosolvent or surfactant or cyclodextrin, water + ETA (ChCl:EG 1:2), x*ETA = 0.6, 303.15 K): 561 mg/mL | solubility at 24 h (deep eutectic solvent + water binary mixture, 30 °C, aqueous with cosolvent or surfactant or cyclodextrin, water + ETA (ChCl:EG 1:2), x*ETA = 0.8, 303.15 K): 452 mg/mL | solubility at 24 h (deep eutectic solvent + water binary mixture, 35 °C, aqueous with cosolvent or surfactant or cyclodextrin, water + ETA (ChCl:EG 1:2), x*ETA = 0.5, 308.15 K): 664 mg/mL | solubility at 24 h (deep eutectic solvent + water binary mixture, 35 °C, aqueous with cosolvent or surfactant or cyclodextrin, water + ETA (ChCl:EG 1:2), x*ETA = 0.6, 308.15 K): 670 mg/mL | solubility at 24 h (deep eutectic solvent + water binary mixture, 35 °C, aqueous with cosolvent or surfactant or cyclodextrin, water + ETA (ChCl:EG 1:2), x*ETA = 0.8, 308.15 K): 561 mg/mL | solubility at 24 h (deep eutectic solvent + water binary mixture, 40 °C, aqueous with cosolvent or surfactant or cyclodextrin, water + ETA (ChCl:EG 1:2), x*ETA = 0.5, 313.15 K): 744 mg/mL | solubility at 24 h (deep eutectic solvent + water binary mixture, 40 °C, aqueous with cosolvent or surfactant or cyclodextrin, water + ETA (ChCl:EG 1:2), x*ETA = 0.6, 313.15 K): 753 mg/mL | solubility at 24 h (deep eutectic solvent + water binary mixture, 40 °C, aqueous with cosolvent or surfactant or cyclodextrin, water + ETA (ChCl:EG 1:2), x*ETA = 0.8, 313.15 K): 655 mg/mL | solubility increase in optimal binary composition compared to neat DES (glycerol-containing systems, x*DES = 0.6, average): 28% | volume of saturated solution containing the recommended 60 mg (neat DES ETA): 0.20 mL | volume of saturated solution containing the recommended 60 mg (neat DES GLE): 0.32 mL | xE mole fraction solubility (neat DES choline chloride + ethylene glycol (ETA) 1:1 molar ratio, 298.15 K): 1031.93 (±62.91) mole fraction ∙10^4 | xE mole fraction solubility (neat DES choline chloride + ethylene glycol (ETA) 1:1 molar ratio, 303.15 K): 1400.98 (±40.74) mole fraction ∙10^4 | xE mole fraction solubility (neat DES choline chloride + ethylene glycol (ETA) 1:1 molar ratio, 308.15 K): 2089.82 (±49.36) mole fraction ∙10^4 | xE mole fraction solubility (neat DES choline chloride + ethylene glycol (ETA) 1:1 molar ratio, 313.15 K): 2966.24 (±120.59) mole fraction ∙10^4 | xE mole fraction solubility (neat DES choline chloride + ethylene glycol (ETA) 1:2 molar ratio (x*ETA = 1.0), 298.15 K): 1579.47 (±70.73) mole fraction ∙10^4 | xE mole fraction solubility (neat DES choline chloride + ethylene glycol (ETA) 1:2 molar ratio (x*ETA = 1.0), 303.15 K): 2135.68 (±42.46) mole fraction ∙10^4 | xE mole fraction solubility (neat DES choline chloride + ethylene glycol (ETA) 1:2 molar ratio (x*ETA = 1.0), 308.15 K): 2878.22 (±133.85) mole fraction ∙10^4 | xE mole fraction solubility (neat DES choline chloride + ethylene glycol (ETA) 1:2 molar ratio (x*ETA = 1.0), 313.15 K): 3602.21 (±117.41) mole fraction ∙10^4 | xE mole fraction solubility (neat DES choline chloride + ethylene glycol (ETA) 1:4 molar ratio, 298.15 K): 1306.68 (±55.75) mole fraction ∙10^4 | xE mole fraction solubility (neat DES choline chloride + ethylene glycol (ETA) 1:4 molar ratio, 303.15 K): 1677.66 (±47.52) mole fraction ∙10^4 | xE mole fraction solubility (neat DES choline chloride + ethylene glycol (ETA) 1:4 molar ratio, 308.15 K): 2434.99 (±114.12) mole fraction ∙10^4 | xE mole fraction solubility (neat DES choline chloride + ethylene glycol (ETA) 1:4 molar ratio, 313.15 K): 3428.20 (±105.69) mole fraction ∙10^4 | xE mole fraction solubility (neat DES choline chloride + glycerol (GLE) 1:1 molar ratio, 298.15 K): 786.83 (±3.34) mole fraction ∙10^4 | xE mole fraction solubility (neat DES choline chloride + glycerol (GLE) 1:1 molar ratio, 303.15 K): 1173.65 (±39.25) mole fraction ∙10^4 | xE mole fraction solubility (neat DES choline chloride + glycerol (GLE) 1:1 molar ratio, 308.15 K): 1615.31 (±40.69) mole fraction ∙10^4 | xE mole fraction solubility (neat DES choline chloride + glycerol (GLE) 1:1 molar ratio, 313.15 K): 2429.30 (±72.71) mole fraction ∙10^4 | xE mole fraction solubility (neat DES choline chloride + glycerol (GLE) 1:2 molar ratio (x*GLE = 1.0), 298.15 K): 1052.85 (±68.85) mole fraction ∙10^4
